Measured values as given in US8802405B2, “Ethanologenic Clostridium species, Clostridium coskatii” (Coskata, Inc., priority 2010, dated 2014).

Tests used:
C. coskatii PS02 [1] = experiment: Growth on various substrates (carbon substrate utilization); assay type: cell-based, Clostridium coskatii (PS02); conditions: for Growth on substrate: C. coskatii PS02, 1 g/L carbon source, N2:CO2 (80%:20%), OD600
Description: (§1) Growth was measured spectrophotometrically at 600 nm (Spectronic 20D; Milton Roy). Carbon substrate utilization was based upon growth after consecutive transfers in media containing 1 g/L of each carbon source. For carbon substrates, screening was performed under an atmosphere of N2: CO2 (80%:20%). A positive growth response was recorded for an OD600 exceeding 0.2 AU. For citrate, additional ^13C-labeled isotope experiments were conducted to determine the nature of products by analysis of final 0.2 μm-filtered product samples by carbon NMR using a Bruker UltraShield Avance 400 MHz nuclear magnetic resonance spectrometer.

C. ljungdahlii PETC [2] = experiment: as above; assay type: cell-based, Clostridium ljungdahlii PETC; conditions: 1 g/L carbon source, N2:CO2 (80%:20%), OD600
Description: as §1

C. ragsdalei [3] = experiment: as above; assay type: cell-based, Clostridium ragsdalei; conditions: 1 g/L carbon source, N2:CO2 (80%:20%), OD600
Description: as §1

C. autoethangenum [4] = experiment: as above; assay type: cell-based, Clostridium autoethanogenum; conditions: C. autoethangenum; 1 g/L carbon source; N2:CO2 (80%:20%); OD600
Description: as §1

C. coskatii PS02 [5] = experiment: as above; assay type: cell-based; conditions: Clostridium coskatii (PS02); absence of yeast extract
C. ljungdahlii PETC [6] = experiment: Antibiotic susceptibility, growth at 100 μg/mL antibiotic; assay type: cell-based, Clostridium ljungdahlii PETC; conditions: for Antibiotic susceptibility pattern (+ indicates growth): C. ljungdahlii PETC, antibiotic 100 μg/ml, 37% CO, 35% H2, 22% CO2, balance N2, OD600; for Resistance to antibiotic (in words): Clostridium ljungdahlii PETC, 100 μg/mL
Description: (§2) The antibiotic susceptibility of Clostridium coskatii (PS02) was evaluated in Acetogen C3 media against 17 antibiotics at a concentration of 100 μg/mL (Table G). Clostridium coskatii (PS02) was resistant to erythromycin, nalidixic acid, spectinomycin, colistin, penicillin, streptomycin, and chloramphenicol. Three antibiotics differentiated C. coskatii from three ethanologenic Clostridia: C. ljungdahlii PETC, C. ragsgalei, and C. autoethanogenum. These differentiating antibiotics included, erythromycin, carbenicillin, and chloramphenicol (Table J).
(§3) Antibiotic susceptibility was based upon growth in media containing 100 μg/mL of each antibiotic. The atmosphere was 37% CO, 35% H2, 22% CO2 with a balance gas of N2. A positive growth response was recorded for an OD600 exceeding 0.2 AU.

C. coskatii PS02 [7] = experiment: as above; assay type: cell-based, Clostridium coskatii (PS02); conditions: Acetogen C3 media; for Antibiotic susceptibility pattern (+ indicates growth): C. coskatii PS02, antibiotic 100 μg/ml, 37% CO, 35% H2, 22% CO2, balance N2, OD600; for Resistance to antibiotic (in words): Clostridium coskatii (PS02), 100 μg/mL
Description: as §2, §3

[8] = system: Clostridium coskatii (PS02)
Description: In general, fermentation will be allowed to proceed until a desired level of product such as ethanol is produced in the culture media. Typically, this level of ethanol is in the range of at least 15 grams/liter of culture medium to 50 grams/liter, with a level of at least 30 grams/liter being preferable. […] In addition, continuous culture techniques exist which allow the continual replenishment of fresh culture medium with concurrent removal of used medium, including any liquid products therein (i.e. the chemostat mode).

[9] = at 37° C.; cited from earlier work
C. autoethangenum [10] = experiment: Antibiotic susceptibility, growth at 100 μg/mL antibiotic; assay type: cell-based, Clostridium autoethanogenum; conditions: antibiotic 100 μg/ml, 37% CO, 35% H2, 22% CO2, balance N2, OD600
Description: as §2, §3

C. ragsdalei [11] = experiment: as above; assay type: cell-based, Clostridium ragsdalei; conditions: antibiotic 100 μg/ml, 37% CO, 35% H2, 22% CO2, balance N2, OD600
Description: as §2, §3

[12] = system: Clostridium coskatii (PS02); remark: listed apart in the source

With `[C-]#[O+]` [CO] the Growth on substrate (C. coskatii PS02 [1]) was “+ (A positive growth response was recorded for an OD600 exceeding 0.2 AU)”, the Growth on substrate (C. ljungdahlii PETC [2]) was “+ (A positive growth response was recorded for an OD600 exceeding 0.2 AU)” and the Growth on substrate (C. ragsdalei [3]) was “+ (A positive growth response was recorded for an OD600 exceeding 0.2 AU)”. For the same compound, the Growth on substrate (C. autoethangenum [4]) was “+ (A positive growth response was recorded for an OD600 exceeding 0.2 AU)” and the “Chemolithoautotrophic growth (in words)” value (C. coskatii PS02 [5]) was “occurred”.
In the case of `CC1(C)S[C@@H]2[C@H](NC(=O)C(C(=O)O)c3ccccc3)C(=O)N2[C@H]1C(=O)O` (stereo partly drawn) [Carbenicillin], the “Antibiotic susceptibility pattern (+ indicates growth)” value (from here on “Antibiotic susceptibility pattern”) (C. ljungdahlii PETC [6]) is reported as “+ (+ indicates growth)”, the “Resistance to antibiotic (in words)” value (C. ljungdahlii PETC [6]) is reported as “Resistance” and the “Antibiotic susceptibility pattern” value (C. coskatii PS02 [7]) is reported as “+ (+ indicates growth)”. The “Resistance to antibiotic (in words)” value (C. coskatii PS02 [7]) was “Resistance”.
With `O=C(N[C@H](CO)[C@H](O)c1ccc([N+](=O)[O-])cc1)C(Cl)Cl` [Chloramphenicol] the “Antibiotic susceptibility pattern” value (C. coskatii PS02 [7]) was “+ (+ indicates growth)” and the “Resistance to antibiotic (in words)” value (C. coskatii PS02 [7]) was “resistant”.
With `CC[C@H]1OC(=O)[C@H](C)[C@@H](O[C@H]2C[C@@](C)(OC)[C@@H](O)[C@H](C)O2)[C@H](C)[C@@H](O[C@@H]2O[C@H](C)C[C@H](N(C)C)[C@H]2O)[C@](C)(O)C[C@@H](C)C(=O)[C@H](C)[C@@H](O)[C@]1(C)O` [Erythromycin] the “Antibiotic susceptibility pattern” value (C. ljungdahlii PETC [6]) was “+ (+ indicates growth)”, the “Resistance to antibiotic (in words)” value (C. ljungdahlii PETC [6]) was “Resistance” and the “Antibiotic susceptibility pattern” value (C. coskatii PS02 [7]) was “+ (+ indicates growth)”. The “Resistance to antibiotic (in words)” value (C. coskatii PS02 [7]) was “resistant”.
For `CCO` [Ethanol], the Growth on substrate (C. coskatii PS02 [1]) was “+ (A positive growth response was recorded for an OD600 exceeding 0.2 AU)”, the “Ethanol concentration in which the organism remains viable and will grow” value [8] was “at least 60 grams/liter” and the Growth on substrate (C. ljungdahlii PETC [2]) was “+ (A positive growth response was recorded for an OD600 exceeding 0.2 AU)”. For the same compound, the Growth on substrate (C. ragsdalei [3]) was “+ (A positive growth response was recorded for an OD600 exceeding 0.2 AU)” and the Growth on substrate (C. autoethangenum [4]) was “+ (A positive growth response was recorded for an OD600 exceeding 0.2 AU)”.
In the case of `O=S(=O)(O)CCN1CCOCC1` [MES, 2-(N-morpholino)ethanesulfonic acid], the pKa [9] is listed as 5.97.
For `CCn1cc(C(=O)O)c(=O)c2ccc(C)nc21` [Nalidixic acid], the “Antibiotic susceptibility pattern” value (C. ljungdahlii PETC [6]) was “+ (+ indicates growth)”, the “Antibiotic susceptibility pattern” value (C. autoethangenum [10]) was “+ (+ indicates growth)” and the “Antibiotic susceptibility pattern” value (C. ragsdalei [11]) was “+ (+ indicates growth)”. For the same compound, the “Antibiotic susceptibility pattern” value (C. coskatii PS02 [7]) was “+ (+ indicates growth)” and the “Resistance to antibiotic (in words)” value (C. coskatii PS02 [7]) was “resistant”.
For `O=S(=O)(O)CCN1CCN(CCS(=O)(=O)O)CC1` [PIPES, piperazine-N,N′-bis(2-ethanesulfonic acid], the pKa [9] is given as 6.66.
With `CN[C@@H]1[C@H](O)[C@H](NC)[C@H]2O[C@@]3(O)C(=O)C[C@@H](C)O[C@H]3O[C@@H]2[C@H]1O` [Spectinomycin] the “Antibiotic susceptibility pattern” value (C. ljungdahlii PETC [6]) was “+ (+ indicates growth)”, the “Antibiotic susceptibility pattern” value (C. autoethangenum [10]) was “+ (+ indicates growth)” and the “Antibiotic susceptibility pattern” value (C. ragsdalei [11]) was “+ (+ indicates growth)”. For the same compound, the “Antibiotic susceptibility pattern” value (C. coskatii PS02 [7]) was “+ (+ indicates growth)” and the “Resistance to antibiotic (in words)” value (C. coskatii PS02 [7]) was “resistant”.
In the case of `[H]/N=C(/N)N[C@H]1[C@H](O)[C@@H](O)[C@H](O[C@@H]2O[C@@H](C)[C@](O)(C=O)[C@H]2O[C@@H]2O[C@@H](CO)[C@H](O)[C@@H](O)[C@@H]2NC)[C@@H](N/C(N)=N\[H])[C@@H]1O` [Streptomycin], the “Antibiotic susceptibility pattern” value (C. ljungdahlii PETC [6]) is reported as “+ (+ indicates growth)”, the “Antibiotic susceptibility pattern” value (C. autoethangenum [10]) is reported as “+ (+ indicates growth)” and the “Antibiotic susceptibility pattern” value (C. ragsdalei [11]) is reported as “+ (+ indicates growth)”. The “Antibiotic susceptibility pattern” value (C. coskatii PS02 [7]) was “+ (+ indicates growth)” and the “Resistance to antibiotic (in words)” value (C. coskatii PS02 [7]) was “resistant”.
For `O=C[C@H](O)[C@@H](O)[C@H](O)CO` [Xylose], the Growth on substrate (C. coskatii PS02 [1]) was “+ (A positive growth response was recorded for an OD600 exceeding 0.2 AU)”, the “Chemoorganotrophic growth on substrate (in words)” value (C. coskatii PS02 [1]; Clostridium coskatii (PS02)) was “growth was observed” and the Growth on substrate (C. ljungdahlii PETC [2]) was “+ (A positive growth response was recorded for an OD600 exceeding 0.2 AU)”. The Growth on substrate (C. ragsdalei [3]) was “+ (A positive growth response was recorded for an OD600 exceeding 0.2 AU)” and the Growth on substrate (C. autoethangenum [4]) was “+ (A positive growth response was recorded for an OD600 exceeding 0.2 AU)”.
For `CC(=O)O` [acetic acid], the “Concentration of undissociated acetic acid at which cell growth was significantly inhibited” value [12] was “exceeded 50 mM”.
In the case of Colistin, the “Antibiotic susceptibility pattern” value (C. ljungdahlii PETC [6]) is reported as “+ (+ indicates growth)”, the “Antibiotic susceptibility pattern” value (C. autoethangenum [10]) is reported as “+ (+ indicates growth)” and the “Antibiotic susceptibility pattern” value (C. ragsdalei [11]) is reported as “+ (+ indicates growth)”. For the same compound, the “Antibiotic susceptibility pattern” value (C. coskatii PS02 [7]) was “+ (+ indicates growth)” and the “Resistance to antibiotic (in words)” value (C. coskatii PS02 [7]) was “resistant”.
With Penicillin the “Antibiotic susceptibility pattern” value (C. ljungdahlii PETC [6]) was “+ (+ indicates growth)”, the “Antibiotic susceptibility pattern” value (C. autoethangenum [10]) was “+ (+ indicates growth)” and the “Antibiotic susceptibility pattern” value (C. ragsdalei [11]) was “+ (+ indicates growth)”. The “Antibiotic susceptibility pattern” value (C. coskatii PS02 [7]) was “+ (+ indicates growth)” and the “Resistance to antibiotic (in words)” value (C. coskatii PS02 [7]) was “resistant”.
In the case of Tris(hydroxymethyl)aminomethane, the pKa [9] is listed as 7.72.
